From US9540354B2, “Diamide inhibitors of cytochrome P450” (SEQUOIA PHARMACEUTICALS, INC., priority 2008, dated 2017)

Cc1cc(CC(C(=O)NCc2ccc3occc3c2)C(=O)N(CC(C)C)CC(C)C)n(C)n1 (stereo not shown) [Cmpd. 9]
melting point: 85.5 to 86 °C
